In ChEMBL document CHEMBL1124789, “Angiotensin-converting enzyme inhibitors. 9. Novel [[N-(1-carboxy-3-phenylpropyl)amino]acyl]glycine derivatives with diuretic activity” (J Med Chem, 1990):
Activity calls are given as the source filed them. The rule behind the calls is not given here.

Columns and labels:
[1] = molecular target: T1, Angiotensin-converting enzyme (Rattus norvegicus) (UniProt P47820); assay: Inhibition of Angiotensin I converting enzyme(ACE) at the dose of 100 mg/kg (ip) in rat; assay type: organism-based; set-up: dose 100 mg/kg
T1 sequence (whole entry): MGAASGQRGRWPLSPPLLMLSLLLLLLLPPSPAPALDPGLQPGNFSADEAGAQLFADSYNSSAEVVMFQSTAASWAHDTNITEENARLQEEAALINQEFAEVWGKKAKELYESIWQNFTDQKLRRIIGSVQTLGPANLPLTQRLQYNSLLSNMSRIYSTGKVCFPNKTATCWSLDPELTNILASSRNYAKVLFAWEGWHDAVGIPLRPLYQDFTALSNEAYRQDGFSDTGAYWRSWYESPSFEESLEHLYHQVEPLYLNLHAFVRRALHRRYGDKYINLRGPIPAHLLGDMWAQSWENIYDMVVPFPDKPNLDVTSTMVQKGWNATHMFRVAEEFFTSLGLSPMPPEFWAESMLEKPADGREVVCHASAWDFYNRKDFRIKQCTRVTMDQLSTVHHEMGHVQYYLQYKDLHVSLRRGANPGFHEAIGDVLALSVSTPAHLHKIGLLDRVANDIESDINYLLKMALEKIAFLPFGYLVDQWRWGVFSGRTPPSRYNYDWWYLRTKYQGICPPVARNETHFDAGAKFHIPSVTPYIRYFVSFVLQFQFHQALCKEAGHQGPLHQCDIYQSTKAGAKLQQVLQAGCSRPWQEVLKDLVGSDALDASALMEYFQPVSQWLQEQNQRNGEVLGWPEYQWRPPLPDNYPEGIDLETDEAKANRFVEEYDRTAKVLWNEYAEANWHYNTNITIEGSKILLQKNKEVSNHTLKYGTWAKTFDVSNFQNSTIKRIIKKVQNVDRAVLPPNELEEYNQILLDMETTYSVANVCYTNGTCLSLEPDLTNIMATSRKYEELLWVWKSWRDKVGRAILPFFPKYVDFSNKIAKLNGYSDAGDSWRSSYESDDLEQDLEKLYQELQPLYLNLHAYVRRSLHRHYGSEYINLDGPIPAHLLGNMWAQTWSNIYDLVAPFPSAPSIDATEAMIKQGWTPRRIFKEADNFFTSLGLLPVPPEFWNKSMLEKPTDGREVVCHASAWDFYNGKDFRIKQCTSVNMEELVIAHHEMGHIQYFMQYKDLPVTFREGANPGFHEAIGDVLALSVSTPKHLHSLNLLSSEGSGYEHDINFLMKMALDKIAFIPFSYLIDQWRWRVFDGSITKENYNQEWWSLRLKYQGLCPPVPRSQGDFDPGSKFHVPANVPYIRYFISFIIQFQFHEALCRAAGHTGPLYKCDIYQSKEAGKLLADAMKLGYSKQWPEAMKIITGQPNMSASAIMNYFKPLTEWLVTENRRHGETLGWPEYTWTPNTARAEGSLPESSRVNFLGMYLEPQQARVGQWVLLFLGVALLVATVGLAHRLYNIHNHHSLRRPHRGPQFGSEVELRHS

[2] = molecular target: T1, Angiotensin-converting enzyme (Rattus norvegicus); assay: Inhibition of Angiotensin I converting enzyme(ACE) at the dose of 100 mg/kg (po) in rat; assay type: organism-based; set-up: dose 100 mg/kg
[3] = molecular target: T1, Angiotensin-converting enzyme (Rattus norvegicus); assay: Inhibition of Angiotensin I converting enzyme(ACE) at the dose of 10 mg/kg (po) in rat; assay type: organism-based; set-up: dose 10 mg/kg
[4] = molecular target: T1, Angiotensin-converting enzyme (Rattus norvegicus); assay: Inhibition of Angiotensin I converting enzyme(ACE) at the dose of 30 mg/kg (po) in rat; assay type: organism-based; set-up: dose 30 mg/kg
[5] = molecular target: T2, Angiotensin-converting enzyme (Rattus norvegicus, UniProt P47820); assay: In vitro inhibitory activity against Angiotensin I converting enzyme(ACE)
T2 sequence (P47820 whole entry): T1 sequence (whole entry)

[6] = molecular target: Angiotensin-converting enzyme (Homo sapiens) (UniProt P12821); assay: Inhibition of Angiotensin I converting enzyme(ACE) at the dose of 100 mg/kg (ip) in dog; assay type: organism-based; set-up: dose 100 mg/kg; settings: Canis lupus familiaris; target entry is the homologue from another species
Angiotensin-converting enzyme (Homo sapiens), sequence (P12821 whole entry): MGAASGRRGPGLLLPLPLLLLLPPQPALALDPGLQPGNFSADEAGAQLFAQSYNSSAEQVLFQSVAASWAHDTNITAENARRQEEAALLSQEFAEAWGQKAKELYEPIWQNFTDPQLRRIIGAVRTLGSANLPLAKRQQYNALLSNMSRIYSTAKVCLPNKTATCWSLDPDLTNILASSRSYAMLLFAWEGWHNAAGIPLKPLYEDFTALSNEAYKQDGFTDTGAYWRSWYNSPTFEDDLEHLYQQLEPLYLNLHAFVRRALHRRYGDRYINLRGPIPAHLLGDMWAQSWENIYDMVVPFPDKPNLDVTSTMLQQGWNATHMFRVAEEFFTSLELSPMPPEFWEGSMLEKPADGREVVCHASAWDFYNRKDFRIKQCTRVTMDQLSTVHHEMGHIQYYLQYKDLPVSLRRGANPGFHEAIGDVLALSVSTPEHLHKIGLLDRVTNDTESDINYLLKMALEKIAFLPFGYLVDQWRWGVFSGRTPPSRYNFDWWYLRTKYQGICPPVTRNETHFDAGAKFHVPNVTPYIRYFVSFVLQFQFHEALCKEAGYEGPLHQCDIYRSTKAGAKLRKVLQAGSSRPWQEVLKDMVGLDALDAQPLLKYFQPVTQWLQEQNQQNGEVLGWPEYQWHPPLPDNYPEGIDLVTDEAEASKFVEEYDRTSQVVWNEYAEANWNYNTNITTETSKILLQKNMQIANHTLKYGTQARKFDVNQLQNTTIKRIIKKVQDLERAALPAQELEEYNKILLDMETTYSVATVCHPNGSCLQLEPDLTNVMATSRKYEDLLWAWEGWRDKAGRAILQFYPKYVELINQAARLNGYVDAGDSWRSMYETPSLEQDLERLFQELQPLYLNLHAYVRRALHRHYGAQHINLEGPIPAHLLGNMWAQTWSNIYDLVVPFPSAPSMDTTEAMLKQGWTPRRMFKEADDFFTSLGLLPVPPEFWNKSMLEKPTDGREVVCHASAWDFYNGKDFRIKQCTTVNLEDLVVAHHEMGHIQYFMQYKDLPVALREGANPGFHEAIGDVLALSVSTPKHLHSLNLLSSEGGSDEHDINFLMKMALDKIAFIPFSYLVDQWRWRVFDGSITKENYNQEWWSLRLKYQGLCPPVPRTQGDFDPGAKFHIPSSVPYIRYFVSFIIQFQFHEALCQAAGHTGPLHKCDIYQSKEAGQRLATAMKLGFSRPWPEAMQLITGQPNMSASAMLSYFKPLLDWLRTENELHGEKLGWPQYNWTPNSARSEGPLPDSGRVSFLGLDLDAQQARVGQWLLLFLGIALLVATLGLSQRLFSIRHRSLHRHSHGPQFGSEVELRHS

Canis familiaris [7] = assay: Diuretic activity (po) in dog; ND-Natriuresis&diuresis; assay type: functional, organism-based; settings: Canis lupus familiaris; Urine
Canis familiaris [8] = assay: Maximum percent decrease in blood pressure at the dose of 100 mg/kg ip; assay type: functional, Canis lupus familiaris; settings: route intraperitoneal
Rattus norvegicus [9] = assay: Diuretic activity (po);ND- Natriuresis and diuresis; assay type: functional, organism-based; settings: Urine
Rattus norvegicus [10] = organism: Rattus norvegicus; assay: Duration of action on ACE in rat; assay type: functional
Rattus norvegicus [11] = assay: Diuretic activity (ip);ND- Natriuresis and diuresis; assay type: functional, organism-based; settings: Urine
Rattus norvegicus [12] = assay: Diuretic activity (ip); NI-No Increase; assay type: functional, organism-based; settings: Urine
[13] = molecular target: T1, Angiotensin-converting enzyme (Rattus norvegicus); assay: Inhibition of Angiotensin I converting enzyme(ACE) at the dose of 30 mg/kg (ip) in rat; assay type: organism-based; set-up: dose 30 mg/kg; scale not given: the % may be the effect or the level left
Rattus norvegicus [14] = assay: Diuretic activity (po); NI-No Increase; assay type: functional, organism-based; settings: Urine
[15] = molecular target: Angiotensin-converting enzyme (Homo sapiens) (UniProt P12821); assay: In vitro inhibitory activity against Angiotensin I converting enzyme(ACE) in dog; settings: Canis lupus familiaris; target entry is the homologue from another species; concentration not given here
Canis familiaris [16] = assay: Diuretic activity (po) in dog; ND- Natriuresis and diuresis; assay type: functional, organism-based; settings: Canis lupus familiaris; Urine
Rattus norvegicus [17] = assay: Diuretic activity (po); ND-Natriuresis&diuresis; assay type: functional, organism-based; settings: Urine
[18] = molecular target: T2, Angiotensin-converting enzyme; assay: (§1) In vitro inhibitory activity against Angiotensin I converting enzyme (ACE)
Rattus norvegicus [19] = assay: Diuretic activity (po);NI- No increase; assay type: functional, organism-based; settings: Urine
Rattus norvegicus [20] = assay: Diuretic activity (ip);NI- No increase; assay type: functional, organism-based; settings: Urine
Rattus norvegicus [21] = assay: Diuretic activity (po); N-Natriuresis; assay type: functional, organism-based; settings: Urine
Canis familiaris [22] = assay: Diuretic activity (ip) was tested in dogs; assay type: functional, organism-based; settings: Canis lupus familiaris; Urine
[23] = molecular target: T1, Angiotensin-converting enzyme (Rattus norvegicus); assay: Inhibition of Angiotensin I converting enzyme(ACE) at the dose of 10 mg/kg (ip) in rat; assay type: organism-based; set-up: dose 10 mg/kg; scale not given: the % may be the effect or the level left
Rattus norvegicus [24] = assay: Diuretic activity (po);NI-No increase; assay type: functional, organism-based; settings: Urine
Rattus norvegicus [25] = assay: Diuretic activity (ip);NI- No Increase; assay type: functional, organism-based; settings: Urine
Canis familiaris [26] = assay: Diuretic activity (po) in dog; NI-No Increase; assay type: functional, organism-based; settings: Canis lupus familiaris; Urine
[27] = molecular target: T1, Angiotensin-converting enzyme (Rattus norvegicus); assay: as §1; settings: concentration not given here
Rattus norvegicus [28] = assay: Diuretic activity (ip);NI-No increase; assay type: functional, organism-based; settings: Urine

Structure (SMILES)	ACE inhibition [1]	ACE inhibition [2]	ACE inhibition [3]	ACE inhibition [4]	IC50 [5]	Duration (Rattus norvegicus [10])	other results
C[C@H](N[C@@H](CCc1ccccc1)C(=O)O)C(=O)N(CCCC1Nc2cc(Cl)c(S(N)(=O)=O)cc2S(=O)(=O)N1)CC(=O)O.Cl (some centres undefined)	100%	100%	50%	50%	230 nM	> 3 h	inhibition [6]: > 100%; Activity (Canis familiaris [7]): Natriuresis and diuresis; Decrease (Canis familiaris [8]): 14%; Activity (Rattus norvegicus [9]): Natriuresis and diuresis
CCOC(=O)C(CCc1ccccc1)N[C@@H](C)C(=O)N(C1Cc2ccccc2C1)[C@H](CCCCNC(=O)c1ccc(Cl)c(S(N)(=O)=O)c1)C(=O)O.Cl (some centres undefined)	50%	50%				3 h	Activity (Rattus norvegicus [11]): Natriuresis and diuresis
CCOC(=O)c1cc(S(N)(=O)=O)c(Cl)cc1NCCCC[C@H](C(=O)O)N(Cc1ccccc1)C(=O)[C@H](C)N[C@@H](CCc1ccccc1)C(=O)OCC.Cl	100%	80%	50%	80%	28000 nM	<1 h	Activity (Rattus norvegicus [12]): No increase
C[C@H](N[C@@H](CCc1ccccc1)C(=O)O)C(=O)N(Cc1ccccc1)[C@H](CCCCNc1cc(Cl)c(S(N)(=O)=O)cc1C(=O)O)C(=O)O.Cl				50%	680 nM	<1 h	Activity [13]: < 30%; Activity (Rattus norvegicus [14]): No increase
Cl.NCCCC[C@H](N[C@@H](CCc1ccccc1)C(=O)O)C(=O)N(CC(=O)O)CC1Nc2cc(Cl)c(S(N)(=O)=O)cc2S(=O)(=O)N1 (some centres undefined)	100%	100%	80%	80%	220 nM	3 h	inhibition [15]: 100%; Activity (Canis familiaris [16]): Natriuresis and diuresis; Decrease (Canis familiaris [8]): 0%; Activity (Rattus norvegicus [17]): Natriuresis and diuresis
C[C@H](N[C@@H](CCc1ccccc1)C(=O)O)C(=O)N(CC(=O)O)[C@H](C)C1Nc2cc(Cl)c(S(N)(=O)=O)cc2S(=O)(=O)N1 (some centres undefined)		80%		< 30%	2700 nM	3 h	
NS(=O)(=O)c1cc2c(cc1Cl)NC(CN(CC(=O)O)C(=O)[C@H](CCCCNC(=O)OCc1ccccc1)N[C@@H](CCc1ccccc1)C(=O)O)NS2(=O)=O (some centres undefined)	100%					<1 h	IC50 [18]: 240 nM; Activity (Rattus norvegicus [19]): No increase
CCOC(=O)[C@H](CCc1ccccc1)N[C@@H](CCCCNC(=O)c1ccc(Cl)c(S(N)(=O)=O)c1)C(=O)N1CCC[C@H]1C(=O)O.Cl	80%	80%	80%			3 h	IC50 [18]: 15000 nM; Activity (Rattus norvegicus [11]): Natriuresis and diuresis
C[C@H](N[C@@H](CCc1ccccc1)C(=O)O)C(=O)N(CC(=O)O)Cc1cc(C(C)(C)C)cc(I)c1O.Cl	100%				160 nM	3 h	Activity (Rattus norvegicus [20]): No increase
C[C@H](N[C@@H](CCc1ccccc1)C(=O)O)C(=O)N(CC(=O)O)CC(=O)Nc1cc(C(=O)O)cc(S(N)(=O)=O)c1Cl.Cl	80%	< 30%		< 30%	2200 nM	3 h	Activity (Rattus norvegicus [14]): No increase
C[C@H](N[C@@H](CCc1ccccc1)C(=O)O)C(=O)N(Cc1ccccc1)[C@H](CCCCNc1cc(Cl)c(C(=O)O)cc1S(N)(=O)=O)C(=O)O.Cl			80%		2400 nM	0 h	Activity (Rattus norvegicus [21]): N
Cl.NS(=O)(=O)c1cc(C(=O)NCCCC[C@H](N[C@@H](CCc2ccccc2)C(=O)O)C(=O)N(CC(=O)O)C2Cc3ccccc3C2)ccc1Cl						3 h	IC50 [18]: 7 nM; Activity (Rattus norvegicus [19]): No increase
Br.C[C@H](N[C@@H](CCc1ccccc1)C(=O)O)C(=O)N(C1CCC2(CC1)Nc1cc(Cl)c(S(N)(=O)=O)cc1S(=O)(=O)N2)C(CCCCN)C(=O)O (some centres undefined)		50%			95000 nM	<1 h	Activity (Rattus norvegicus [11]): Natriuresis and diuresis
C[C@H](CS)C(=O)N1CCC[C@H]1C(=O)O							Activity (Canis familiaris [22]): inactive
C[C@H](N[C@@H](CCc1ccccc1)C(=O)O)C(=O)N(CC(=O)O)C1CCC2(CC1)Nc1cc(Cl)c(S(N)(=O)=O)cc1S(=O)(=O)N2 (some centres undefined)		80%			3500 nM	3 h	
CCOC(=O)[C@H](CCc1ccccc1)N[C@@H](CCCCNC(=O)c1ccc(Cl)c(S(N)(=O)=O)c1)C(=O)N(CC(=O)O)C1Cc2ccccc2C1.Cl		100%	50%			>3 h	Activity [23]: 100%; IC50 [18]: 40 nM; Activity (Rattus norvegicus [24]): No increase
Cl.NS(=O)(=O)c1cc(C(=O)NCCCC[C@H](N[C@@H](CCc2ccccc2)C(=O)O)C(=O)N2CCC[C@H]2C(=O)O)ccc1Cl	100%	100%	80%			>3 h	IC50 [18]: 6.5 nM; Activity (Rattus norvegicus [25]): No increase; Activity (Rattus norvegicus [19]): No increase
C[C@H](N[C@@H](CCc1ccccc1)C(=O)O)C(=O)N(CC(=O)O)CC1Nc2cc(Cl)c(S(N)(=O)=O)cc2S(=O)(=O)N1 (some centres undefined)	100%	80%	50%	50%	38000 nM	>3 h	inhibition [6]: 100%; Activity (Canis familiaris [26]): No increase; Decrease (Canis familiaris [8]): 21%; Activity (Rattus norvegicus [17]): Natriuresis and diuresis
CCOC(=O)[C@H](CCc1ccccc1)N[C@@H](C)C(=O)N(CC(=O)O)N(C)CC1Nc2cc(Cl)c(S(N)(=O)=O)cc2S(=O)(=O)N1.Cl (some centres undefined)		50%				<1 h	inhibition [27]: 74%; Activity [23]: 80%; Activity (Rattus norvegicus [9]): Natriuresis and diuresis
CCOC(=O)[C@H](CCc1ccccc1)N[C@@H](C)C(=O)N(CC(=O)O)[C@H](CC(C)C)C1Nc2cc(Cl)c(S(N)(=O)=O)cc2S(=O)(=O)N1.Cl (some centres undefined)			< 30%			<1 h	inhibition [27]: < 20%; Activity [23]: 50%; Activity (Rattus norvegicus [19]): No increase
C[C@H](N[C@@H](CCc1ccccc1)C(=O)O)C(=O)N(CCCNC(=O)c1ccc(Cl)c(S(N)(=O)=O)c1)CC(=O)O							IC50 [18]: 38000 nM; Activity (Rattus norvegicus [28]): No increase
CCOC(=O)c1cc(S(N)(=O)=O)c(NCCCC[C@H](C(=O)O)N(Cc2ccccc2)C(=O)[C@H](C)N[C@@H](CCc2ccccc2)C(=O)OCC)cc1Cl.Cl	80%	< 30%			22000 nM	3 h	Activity (Rattus norvegicus [20]): No increase
CCOC(=O)[C@H](CCc1ccccc1)N[C@@H](C)C(=O)N(CC(=O)O)Cc1cc(C(C)(C)C)cc(I)c1O	80%	< 30%			80000 nM		Activity (Rattus norvegicus [12]): No increase
